Legend:
cynomolgus NaPi2b = assay: Flow cytometry binding to HEK293-6e cells transfected with cynomolgus NaPi2b (Example 5); details: transfected HEK293-6e cells, 18-24 hours at 4° C.
Description: The binding cross-reactivity of humanized antibody variant v29456 to human, cynomolgus and mouse NaPi2b was assessed by flow cytometry using HEK293-6e transfected cells.
Briefly, HEK293-6e cells were transfected for ˜24 hours to transiently express human NaPi2b, cynomolgus or mouse NaPi2b, at 1 μg of DNA per 1 million cells. Following transfection, 50,000 cells per well were seeded in V-bottom 96-well plates and incubated with 200 nM of primary antibody for 18-24 hours at 4° C. to prevent internalization. Post-incubation, cells were washed and stained with anti-Human IgG Fc AF647 conjugate (Jackson Immuno Research Labs, West Grove, PA, Cat. No. 109-605-098, Lot. No. 124868) at 4° C. for 1 hour. Following staining and washing, fluorescence was detected by flow cytometry on BD LSRFortessa™ Cell Analyzer (BD Biosciences, Franklin Lake, NJ) with 10,000 minimum events collected per well. The AF647/APC-A GeoMean (fluorescence signal geometric mean, proportional to anti-Human AF647 binding) was calculated for the live singlet cell population for each primary antibody using FlowJo™ v8 software (BD Biosciences, Franklin Lake, NJ). The Bmax and Kd of each primary antibody were calculated using GraphPad Prism Version 9 (GraphPad Software, San Diego, CA)

OVCAR-3 cells = assay: In vitro cytotoxicity, 2D monolayer, CellTiter-Glo, OVCAR-3; format: cell-based, human; details: OVCAR-3, 4 days; IC = Incomplete Curve
Description: (§1) The cytotoxicity as measured by cell growth inhibition of the humanized variant v29456 (H1L2) conjugated to various drug-linkers were assessed in a panel of NaPi2b-expressing cell lines as described below. Cell lines used were OVCAR-3 (ovarian carcinoma), IGROV-1 (ovarian carcinoma), and HCC-78 (lung carcinoma). ADCs with antibody palivizumab (anti-RSV) (v22277) were used as non-targeted controls.
(§2) OVCAR-3 were cultured in RPMI 1640 Medium, ATCC modification (Thermo Fisher Scientific, Waltham, MA) supplemented with 20% fetal bovine serum (FBS) (Thermo Fisher Scientific, Waltham, MA) and 0.01 μg/mL human insulin (Sigma-Aldrich, Oakville, ON). […] After incubation, CellTiter-Glo® reagent (Promega Corporation, Madison, WI) was added in all wells and luminescence corresponding to ATP present in each well was measured using a Synergy™H1 plate reader (BioTek Instruments, Winooski, VT). Percent cytotoxicity values were calculated by the following formula: (1−(Luminescence of Treated Cells/Average Luminescence of Untreated Cells))×100, and plotted against test article concentration using GraphPad Prism 9 software (GraphPad Software, San Diego, CA). EC50 values were calculated based on a non-linear regression log(agonist) versus response, variable slope (four parameters) by GraphPad Prism 9.

IGROV-1 cells = assay: In vitro cytotoxicity, 2D monolayer, CellTiter-Glo, IGROV-1; format: cell-based, human; details: IGROV-1, 4 days
Description: as §1, §2

HCC-78 cells = assay: In vitro cytotoxicity, 2D monolayer, CellTiter-Glo, HCC-78; format: cell-based, human; details: HCC-78, 4 days
Description: as §1, §2

human NaPi2b = target: T1, human NaPi2b (Homo sapiens, UniProt O95436); assay: Competition binding (epitope binning) by flow cytometry on HEK293-6e cells expressing human NaPi2b; details: unlabeled competitor antibody 100 μg/mL, GFP- population
T1 construct: host or cells: HEK293-6e
T1 sequence (O95436 1-690): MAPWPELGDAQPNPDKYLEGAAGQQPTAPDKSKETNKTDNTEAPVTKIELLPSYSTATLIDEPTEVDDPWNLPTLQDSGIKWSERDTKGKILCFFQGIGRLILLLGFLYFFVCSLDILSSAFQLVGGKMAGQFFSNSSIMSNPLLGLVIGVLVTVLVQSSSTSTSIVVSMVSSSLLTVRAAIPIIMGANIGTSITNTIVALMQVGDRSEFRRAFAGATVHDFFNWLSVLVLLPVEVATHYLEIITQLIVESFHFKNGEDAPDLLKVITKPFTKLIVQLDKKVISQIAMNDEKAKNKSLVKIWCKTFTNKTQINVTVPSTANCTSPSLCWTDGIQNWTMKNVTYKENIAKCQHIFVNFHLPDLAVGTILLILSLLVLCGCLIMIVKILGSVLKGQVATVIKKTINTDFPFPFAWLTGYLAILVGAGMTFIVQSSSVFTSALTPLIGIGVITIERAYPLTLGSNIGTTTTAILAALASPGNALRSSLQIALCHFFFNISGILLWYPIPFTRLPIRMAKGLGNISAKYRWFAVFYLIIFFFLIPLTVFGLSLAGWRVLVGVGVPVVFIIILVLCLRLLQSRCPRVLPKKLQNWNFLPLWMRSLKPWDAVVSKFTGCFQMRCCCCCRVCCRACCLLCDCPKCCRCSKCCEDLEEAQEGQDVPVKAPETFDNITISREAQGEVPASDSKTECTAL
Description: Binding was assessed by flow cytometry using HEK293-6e cells as described below.
HEK293-6e cells were transfected for ˜24 hours to transiently express human NaPi2b (1 μg of pTT5-NaPi2b per 1 million cells) or transfected with GFP (ATUM, Menlo Park, CA; pD2610-v23, also 1 μg of DNA per 1 million cells). Following transfection, human NaPi2b-expressing HEK296-6e cells and transfected GFP-expressing HEK296-6e cells were mixed at 4:1 ratio. Each well of a V-bottom 96-well plate was seeded with 100,000 cells of the mixture and incubated with 100 μg/mL of unlabeled competitor anti-NaPi2b antibody for an hour on ice. Post incubation, cells were washed and stained with 1 μg/mL of AF647-conjugated anti-NaPi2b detection antibodies for an hour on ice. Following staining and washing, fluorescence was detected by flow cytometry on a BD LSRFortessa™ Cell Analyzer (BD Biosciences, Franklin Lake, NJ) with 10,000 minimum events collected per well. The AF647/APC-A GeoMean (fluorescence signal geometric mean, proportional to anti-Human AF647 binding) was calculated for the FITC/GFP negative live cell population and using FlowJo™ Version 10.8.1 (BD Biosciences, Franklin Lake, NJ). Percentage inhibition was calculated using the following formula: […]

Sequence of cynomolgus NaPi2b (as listed by the source): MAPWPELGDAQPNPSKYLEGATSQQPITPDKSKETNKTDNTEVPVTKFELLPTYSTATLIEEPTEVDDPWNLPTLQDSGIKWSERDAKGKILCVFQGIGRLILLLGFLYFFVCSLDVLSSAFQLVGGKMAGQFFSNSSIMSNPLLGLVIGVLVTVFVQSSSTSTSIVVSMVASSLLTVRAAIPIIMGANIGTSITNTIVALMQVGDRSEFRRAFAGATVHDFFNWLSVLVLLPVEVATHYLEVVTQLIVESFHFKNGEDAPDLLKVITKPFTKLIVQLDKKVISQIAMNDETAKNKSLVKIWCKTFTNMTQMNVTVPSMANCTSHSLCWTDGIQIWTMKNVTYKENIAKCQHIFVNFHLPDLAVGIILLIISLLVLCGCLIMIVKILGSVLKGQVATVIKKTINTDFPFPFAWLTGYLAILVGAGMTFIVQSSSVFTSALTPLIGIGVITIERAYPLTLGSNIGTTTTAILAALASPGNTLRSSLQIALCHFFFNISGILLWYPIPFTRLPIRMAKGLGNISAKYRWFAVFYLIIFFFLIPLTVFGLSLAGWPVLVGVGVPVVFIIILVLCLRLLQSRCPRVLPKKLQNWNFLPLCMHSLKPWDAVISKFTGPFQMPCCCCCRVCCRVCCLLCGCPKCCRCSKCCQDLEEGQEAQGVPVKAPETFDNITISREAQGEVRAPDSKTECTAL

Row | Substance | Bmax (APC-A GeoMean), Cyno NaPi2b (cynomolgus NaPi2b) | EC50 (OVCAR-3 cells) | EC50 (IGROV-1 cells) | EC50 (HCC-78 cells) | other results
1 | v18993: anti-NaPi2b reference humanized antibody lifastuzumab [reference compound] | 1,557 APC-A GeoMean |  |  |  | 
2 | v22277-DL1: non-targeted control ADC of palivizumab v22277 with MC-GGFG-AM-DXd1 (DL1), DAR 8 |  | > 50 nM | > 50 nM | > 50 nM | 
3 | v22277-DL3: non-targeted control ADC of palivizumab v22277 with MC-VC-PABC-MMAE (DL3), DAR 4 |  | 9.4 nM | 7.02 nM | 11.4 nM | 
4 | v18992: anti-NaPi2b reference humanized antibody MX35 [reference compound] | 2,365 APC-A GeoMean |  |  |  | 
5 | v16955: Palivizumab (anti-RSV), negative control antibody in the competition binding |  |  |  |  | % Inhibition vs. irrelevant mAb, labeled detection antibody v16955 (negative control) (human NaPi2b; labeled detection antibody v16955 1 μg/mL): 0%; % Inhibition vs. irrelevant mAb, labeled detection antibody v18992 (MX35) (human NaPi2b; labeled detection antibody v18992 1 μg/mL): 0%; % Inhibition vs. irrelevant mAb, labeled detection antibody v18993 (lifastuzumab) (human NaPi2b; labeled detection antibody v18993 1 μg/mL): 0%; % Inhibition vs. irrelevant mAb, labeled detection antibody v23855 (human NaPi2b; labeled detection antibody v23855 1 μg/mL): 0%
